Laboratory results as given in patent publication US20220378923A1, “BET DEGRADER” (KYOWA KIRIN CO., LTD., priority 2019, published 2022).

Test system: DCAF16 KO SU-DHL-4 cells
Assay: Inhibitory effect on cell viability using SU-DHL-4 DCAF16 knock out (KO) cell line (Test Example 6)
Format: cell-based, human
Conditions: for Activity Attenuation Ratio: (SU-DHL-4 DCAF16 KO IC50)/(SU-DHL-4 WT IC50); for IC50: DCAF16 KO SU-DHL-4 cells, 72 hours, Cell Counting Kit-8, 50% inhibition of cell viability
Procedure: The human DLBCL cell line SU-DHL-4 was purchased from DSMZ. SU-DHL-4 was passaged using RPMI1640 medium containing 10 vol % FBS. After the Cas9 gene was introduced, the cells were cultured in the above medium containing 0.01 mg/mL blasticidin (InvivoGen, Cat No. ant-bl-1). After introduction of sgRNA, the cells were cultured in the above medium containing 0.0001 mg/mL puromycin dihydrochloride (SIGMA, Cat No. P9020-10 ML). The culture conditions were 37° C. and 5% CO2.
Edit-R Lentiviral hEF1α-Blast-Cas9 Nuclease Particles (Cat No. VCAS10126) was used as a lentivirus for expressing Cas9 in human cell lines. Three types of Edit-R Human DCAF16 Lentiviral sgRNA (Cat No. VSGH10142-246568260; DNA target sequence […] (SEQ ID NO: 1), Cat No. VSGH10142-246568262; DNA target sequence […] (SEQ ID NO: 2) and Cat No. VSGH10142-246568263; DNA target sequence […] (SEQ ID NO: 3)) were used as lentiviruses for introducing DCAF16 sgRNA. As a control, Edit-R Lentiviral sgRNA Non-targeting Control #1 (Cat No. VSGC10215) was used. All lentiviruses were purchased from Dharmacon and stored at −80° C. until use.
SU-DHL-4 was suspended at 4×10^5 cells/mL in RPMI 1640 without FBS, 0.25 mL of the suspension was added to a 24-well plate, and the cells were cultured overnight. The next day, 0.003 mL of virus particles of Edit-R Lentiviral hEF1α-Blast-Cas9 Nuclease Particles was added. After culturing in a CO2 incubator for 4 hours, RPMI 1640 containing 0.75 mL of 10 vol % FBS was added. After culturing in a CO2 incubator for about 48 hours, the medium was replaced with RPMI1640 containing 10 vol % FBS, and the cells were cultured in a CO2 incubator. Four days after infection, the medium was replaced with a medium containing 0.01 mg/mL blasticidin (InvivoGen, Cat No. ant-bl-1). Then, the cells were passaged once every 2 to 3 days and thus twice in total (that is, cultured for 1 week) to obtain SU-DHL-4/Cas9, which is a Cas9-introduced SU-DHL-4 cell line.
(6) sgRNA infection SU-DHL-4/Cas9 was suspended at 4×10^5 cells/mL in RPMI 1640 without FBS, 0.25 mL of the suspension was added to a 24-well plate, and the cells were cultured overnight. The next day, a total of 4 types of sgRNA virus particles, 1 type of Control and 3 types targeting DCAF16 were added to the respective wells by 0.03 mL. After culturing in a CO2 incubator for 5 hours, RPMI 1640 containing 0.75 mL of 10 vol % FBS was added.
After culturing in a CO2 incubator for about 48 hours, the medium was replaced with RPMI1640 containing 10 vol % FBS, and the cells were cultured in a CO2 incubator. Four days after infection, the medium was replaced with a medium supplemented with 0.01 mg/mL puromycin dihydrochloride (SIGMA, Cat No. P9020-10 ML). Then, the cells were passaged once or twice a week for 2 weeks, and a cell stock was prepared using CELLBANKER I plus (Takara Bio, Cat No. CB-021). Cell line stock was stored at −80° C. Using Edit-R Lentiviral sgRNA Non-targeting Control #1, the Negative Control sequence was introduced into the SU-DHL-4 cell line, which was referred to as SU-DHL-4 NC strain, and using Edit-R Human DCAF16 Lentiviral sgRNA, […] sequence (SEQ ID NO: 1) was introduced into the SU-DHL-4 cell line, which was referred to as SU-DHL-4 DCAF16 KO1 strain, […] sequence (SEQ ID NO: 2) was introduced into the SU-DHL-4 cell line, which was referred to as SU-DHL-4 DCAF16 KO2 strain, and […] sequence (SEQ ID NO: 3) was introduced into the SU-DHL-4 cell line, which was referred to as SU-DHL-4 DCAF16 KO 3 strain.
The cultured DCAF16 KO SU-DHL-4 cells were seeded at 2000 cells/well in a transparent 384-well plate (Code No. 781182, Greiner bio-one). After seeding, the cells were pre-cultured at 37° C. in a carbon dioxide gas incubator for 18 to 25 hours. […]

Structure (SMILES) | Activity Attenuation Ratio | IC50 (Homo sapiens) [nM] | IC50 [nM]
CCC(=O)N1c2ccccc2[C@H](NCC23CCC(C(=O)N4CC(C(=O)Nc5ccc(N[C@@H]6C[C@H](C)N(C(=O)CC)c7ccccc76)cc5)C4)(CC2)CC3)C[C@@H]1C (relative stereo) [Compound 17o, 1-(4-((((2S,4R)-2-Methyl-1-propionyl-1,2,3,4-tetrahydroquinolin-4-yl)amino)methyl)bicyclo[2.2.2]octane-1-carbonyl)-N-(4-(((2S*,4R*)-2-methyl-1-propionyl-1,2,3,4-tetrahydroquinolin-4-yl)amino)phenyl)azetidine-3-carboxamide] | 670 | 522 | –
Cc1sc2c(c1C)C(c1ccc(C(=O)NCCCNC(=O)c3ccc(C4=N[C@@H](CC(=O)OC(C)(C)C)c5nnc(C)n5-c5sc(C)c(C)c54)cc3)cc1)=N[C@@H](CC(=O)OC(C)(C)C)c1nnc(C)n1-2 [Compound 1b, Di-tert-butyl 2,2′-[(6S,6′S)-({[propane-1,3-diylbis(azanediyl)]bis(carbonyl)}bis(4,1-phenylene))bis(2,3,9-trimethyl-6H-thieno[3,2-f][1,2,4]triazolo[4,3-a][1,4]diazepine-4,6-diyl)]diacetate] | 56 | 36.7 | –
CCC(=O)N1c2ccccc2[C@H](Nc2ccc(C(=O)N3CC4CC3CN4C(=O)c3ccc(N[C@@H]4C[C@H](C)N(C(=O)CC)c5ccccc54)cc3)cc2)C[C@@H]1C [Compound 1k, 1,1′-{(2S,2'S,4R,4′R)-{[(2,5-Diazabicyclo[2.2.1]heptane-2,5-dicarbonyl)bis(4,1-phenylene)]bis(azanediyl)}bis[2-methyl-3,4-dihydroquinoline-4,1(2H)-diyl]}bis(propan-1-one)] | 34 | 7.42 | –
CCC(=O)N1c2ccccc2[C@H](Nc2ccc(C(=O)NCC(=O)CNC(=O)c3ccc(N[C@@H]4C[C@H](C)N(C(=O)CC)c5ccccc54)cc3)cc2)C[C@@H]1C [Compound 1l, N,N′-(2-Oxopropane-1,3-diyl)bis(4-{[(2S,4R)-2-methyl-1-propionyl-1,2,3,4-tetrahydroquinolin-4-yl]amino}benzamide)] | 3357 | 101 | –
CCC(=O)N1c2ccccc2[C@H](Nc2ccc(C(=O)NCc3cn(-c4ccc(N[C@@H]5C[C@H](C)N(C(=O)CC)c6ccccc65)cc4)nn3)cc2)C[C@@H]1C [Compound 3a, 4-{[(2S,4R)-2-Methyl-1-propionyl-1,2,3,4-tetrahydroquinolin-4-yl]amino}-N-{[1-(4-{[(2S,4R)-2-methyl-1-propionyl-1,2,3,4-tetrahydroquinolin-4-yl]amino}phenyl)-1H-1,2,3-triazol-4-yl]methyl}benzamide] | 263 | 6.58 | –
CCC(=O)N1c2ccccc2[C@H](Nc2ccc(C(=O)N3CCn4c(-c5ccc(N[C@@H]6C[C@H](C)N(C(=O)CC)c7ccccc76)cc5)cnc4C3)cc2)C[C@@H]1C [Compound 3e, 1-[(2S,4R)-2-Methyl-4-({4-[3-(4-{[(2S,4R)-2-methyl-1-propionyl-1,2,3,4-tetrahydroquinolin-4-yl]amino}phenyl)-5,6,7,8-tetrahydroimidazo[1,2-a]pyrazine-7-carbonyl]phenyl}amino)-3,4-dihydroquinolin-1(2H)-yl]propan-1-one] | 9515 | 951 | –
CCC(=O)N1c2ccccc2[C@H](Nc2ccc(C(=O)NCCNS(=O)(=O)c3ccc(N[C@@H]4C[C@H](C)N(C(=O)CC)c5ccccc54)cc3)cc2)C[C@@H]1C [Compound 4d, 4-{[(2S,4R)-2-Methyl-1-propionyl-1,2,3,4-tetrahydroquinolin-4-yl]amino}-N-{2-[(4-{[(2S,4R)-2-methyl-1-propionyl-1,2,3,4-tetrahydroquinolin-4-yl]amino}phenyl)sulfonamide]ethyl}benzamide] | 365 | – | 1530
CCC(=O)N1c2ccccc2[C@H](Nc2ccc(NC(=O)CNCC(=O)Nc3ccc(N[C@@H]4C[C@H](C)N(C(=O)CC)c5ccccc54)cc3)cc2)C[C@@H]1C [Compound 5d, 2,2′-Azanediylbis(N-(4-(((2S,4R)-2-methyl-1-propionyl-1,2,3,4-tetrahydroquinolin-4-yl)amino)phenyl)acetamide)] | 546 | 167 | –
CCC(=O)N1c2ccccc2[C@H](Nc2ccc(CNCc3cn(-c4ccc(N[C@@H]5C[C@H](C)N(C(=O)CC)c6ccccc65)cc4)nn3)cc2)C[C@@H]1C [Compound 5h, 1-((2S,4R)-2-Methyl-4-((4-((((1-(4-(((2S,4R)-2-methyl-1-propionyl-1,2,3,4-tetrahydroquinolin-4-yl)amino)phenyl)-1H-1,2,3-triazol-4-yl)methyl)amino)methyl)phenyl)amino)-3,4-dihydroquinolin-1(2H)-yl)propan-1-one] | 942 | 58.4 | –
CCC(=O)N1c2ccccc2[C@H](Nc2ccc(Cn3cc(C(=O)Nc4ccc(N[C@@H]5C[C@H](C)N(C(=O)CC)c6ccccc65)cc4)nn3)cc2)C[C@@H]1C [Compound 5j, 1-(4-(((2S,4R)-2-Methyl-1-propionyl-1,2,3,4-tetrahydroquinolin-4-yl)amino)benzyl)-N-(4-(((2S,4R)-2-methyl-1-propionyl-1,2,3,4-tetrahydroquinolin-4-yl)amino)phenyl)-1H-1,2,3-triazolee-4-carboxamide] | 941 | – | 37.3
CCC(=O)N1c2ccccc2[C@H](Nc2ccc(Cc3cnc4n3CCN(C(=O)c3ccc(N[C@@H]5C[C@H](C)N(C(=O)CC)c6ccccc65)cc3)C4)cc2)C[C@@H]1C [Compound 5q, 1-((2S,4R)-2-Methyl-4-((4-((7-(4-(((2S,4R)-2-methyl-1-propionyl-1,2,3,4-tetrahydroquinolin-4-yl)amino)benzoyl)-5,6,7,8-tetrahydroimidazo[1,2-a]pyrazin-3-yl)methyl)phenyl)amino)-3,4-dihydroquinolin-1(2H)-yl)propan-1-one] | 7078 | 622 | –
CCC(=O)N1c2ccccc2[C@H](Nc2ccc(CCCC(=O)Nc3ccc(N[C@@H]4C[C@H](C)N(C(=O)CC)c5ccccc54)cc3)cc2)C[C@@H]1C [Compound 5r, N,4-Bis(4-(((2S,4R)-2-methyl-1-propionyl-1,2,3,4-tetrahydroquinolin-4-yl)amino)phenyl)butanamide] | 30 | 15.7 | –
CCC(=O)N1c2ccccc2C(Nc2ccc(NC(=O)C#CCNC(=O)c3ccc(N[C@@H]4C[C@H](C)N(C(=O)CC)c5ccccc54)cc3)cc2)CC1C (stereo partly drawn) [Compound 6h, 4-(((2S,4R)-2-Methyl-1-propionyl-1,2,3,4-tetrahydroquinolin-4-yl)amino)-N-(4-((4-((2-methyl-1-propionyl-1,2,3,4-tetrahydroquinolin-4-yl)amino)phenyl)amino)-4-oxobut-2-yn-1-yl)benzamide] | 2250 | 6.8 | –
